# Patent US4985430A, “9-acylamino-tetrahydroacridine derivatives and memory enhancing agent containing said derivative as active ingredient” (priority 1987, dated 1991)
# Counter-ions that a name gives are not always drawn.
# Test system: Na^+ dependent high-affinity choline uptake (HACU) of AF64A-treated rat hippocampus
# Test: Na+ dependent high-affinity choline uptake (HACU) in crude synaptosomal fraction of AF64A-treated rat hippocampus
# Assay type: biochemical
# Details: 10^-4 M; HACU, AF64A-treated rat hippocampus synaptosomal fraction; [3H]choline 1 μM; 37° C.
# Description: Effects on Na^+ dependent high-affinity choline uptake (HACU) of AF64A-treated rat hippocampus
# According to the method of Fischer et al. [J. Pharm. Exper. Ther., Vol. 222, p. 140 (1982)], AF64A was prepared from AF64. AF64A (1.5 nmole/1.5 μl/side) was injected into rat's both ventricles. After one week, subjecting decapitation, only hippocampus was taken out. It was homogenized with 0.32M of sucrose, centrifuged for 10 minutes at 1000 g, and the supernatant was further centrifuged for 20 minutes at 20,000 g to give crude synaptosomal fraction. The crude synaptosomal fraction and medicament were subjected to incubation at 37° C. for 30 minutes, and after addition of [^3 H]choline (1 μM), they were further subjected to incubation at 37° C. for 10 minutes.
# As a control, the crude synaptosomal fraction was subjected to incubation at 37° C. for 30 minutes, and after addition of choline [^3 H]choline (1 μM), it was further subjected to incubation at 37° C. for 10 minutes to use. The reaction was stopped by subjecting filtration on Whatman GF/B filter. Radioactivity on the filter was measured by a liquid scintillation counter and it was made as the HACU amount. An amount of protein was determined according to the method of Bradford. [Analytical Biochemistry, Vol. 72, p. 248 (1976)].
row,SMILES,Improved ratio (% based on Control)
1,O=C(CN1CCCC1=O)Nc1c2c(nc3ccccc13)C1CCN2CC1 [Example 22],4%
2,"CNCC(=O)Nc1c2c(nc3ccccc13)CCCC2 [Example 39, 9-[(2-methylamino)acetyl-amino]-1,2,3,4-tetrahydroacridine]",-11%
3,"CCCC(=O)Nc1c2c(nc3ccccc13)CCCC2 [Example 1, N-(1,2,3,4-tetrahydroacridin-9-yl)butanamide]",15%
4,"O=C(CN1CCCC1=O)Nc1c2c(nc3ccccc13)CCCC2 [Example 14, 2-(2-oxopyrrolidin-1-yl)-N-(1,2,3,4-tetrahydroacidin-9-yl)acetamide hydrochloride]",21%
5,CCCCC(=O)Nc1c2c(nc3ccccc13)CCCC2 [Example 4],5%
6,O=C1CN(CC(=O)Nc2c3c(nc4ccccc24)CCCC3)C(=O)CN1 [Example 37],39%
7,O=C(CN1CCCC1=O)Nc1c2c(nc3sccc13)CCCC2 [Example 27],9%
8,CC(=O)N(C)CC(=O)Nc1c2c(nc3ccccc13)CCCC2 [Example 42],11%
9,NC(=O)NCC(=O)Nc1c2c(nc3ccccc13)CCCC2 [Example 46],27%

# Same assay, conditions: 10^-5 M; HACU, AF64A-treated rat hippocampus synaptosomal fraction; [3H]choline 1 μM; 37° C.
row,SMILES,Improved ratio (% based on Control)
1,O=C(CN1CCCC1=O)Nc1c2c(nc3ccccc13)C1CCN2CC1 [Example 22],30%
2,"CNCC(=O)Nc1c2c(nc3ccccc13)CCCC2 [Example 39, 9-[(2-methylamino)acetyl-amino]-1,2,3,4-tetrahydroacridine]",24%
3,"CCCC(=O)Nc1c2c(nc3ccccc13)CCCC2 [Example 1, N-(1,2,3,4-tetrahydroacridin-9-yl)butanamide]",31%
4,"O=C(CN1CCCC1=O)Nc1c2c(nc3ccccc13)CCCC2 [Example 14, 2-(2-oxopyrrolidin-1-yl)-N-(1,2,3,4-tetrahydroacidin-9-yl)acetamide hydrochloride]",17%
5,CCCCC(=O)Nc1c2c(nc3ccccc13)CCCC2 [Example 4],29%
6,O=C1CN(CC(=O)Nc2c3c(nc4ccccc24)CCCC3)C(=O)CN1 [Example 37],34%
7,O=C(CN1CCCC1=O)Nc1c2c(nc3sccc13)CCCC2 [Example 27],41%
8,CC(=O)N(C)CC(=O)Nc1c2c(nc3ccccc13)CCCC2 [Example 42],29%
9,NC(=O)NCC(=O)Nc1c2c(nc3ccccc13)CCCC2 [Example 46],13%

# Same assay, conditions: 10^-6 M; HACU, AF64A-treated rat hippocampus synaptosomal fraction; [3H]choline 1 μM; 37° C.
row,SMILES,Improved ratio (% based on Control)
1,O=C(CN1CCCC1=O)Nc1c2c(nc3ccccc13)C1CCN2CC1 [Example 22],10%
2,"CNCC(=O)Nc1c2c(nc3ccccc13)CCCC2 [Example 39, 9-[(2-methylamino)acetyl-amino]-1,2,3,4-tetrahydroacridine]",16%
3,"CCCC(=O)Nc1c2c(nc3ccccc13)CCCC2 [Example 1, N-(1,2,3,4-tetrahydroacridin-9-yl)butanamide]",28%
4,"O=C(CN1CCCC1=O)Nc1c2c(nc3ccccc13)CCCC2 [Example 14, 2-(2-oxopyrrolidin-1-yl)-N-(1,2,3,4-tetrahydroacidin-9-yl)acetamide hydrochloride]",16%
5,CCCCC(=O)Nc1c2c(nc3ccccc13)CCCC2 [Example 4],3%
6,O=C1CN(CC(=O)Nc2c3c(nc4ccccc24)CCCC3)C(=O)CN1 [Example 37],27%
7,O=C(CN1CCCC1=O)Nc1c2c(nc3sccc13)CCCC2 [Example 27],25%
8,CC(=O)N(C)CC(=O)Nc1c2c(nc3ccccc13)CCCC2 [Example 42],30%
9,NC(=O)NCC(=O)Nc1c2c(nc3ccccc13)CCCC2 [Example 46],28%

# Same assay, conditions: 10^-7 M; HACU, AF64A-treated rat hippocampus synaptosomal fraction; [3H]choline 1 μM; 37° C.
row,SMILES,Improved ratio (% based on Control)
1,O=C(CN1CCCC1=O)Nc1c2c(nc3ccccc13)C1CCN2CC1 [Example 22],16%
2,"CNCC(=O)Nc1c2c(nc3ccccc13)CCCC2 [Example 39, 9-[(2-methylamino)acetyl-amino]-1,2,3,4-tetrahydroacridine]",8%
3,"CCCC(=O)Nc1c2c(nc3ccccc13)CCCC2 [Example 1, N-(1,2,3,4-tetrahydroacridin-9-yl)butanamide]",13%
4,"O=C(CN1CCCC1=O)Nc1c2c(nc3ccccc13)CCCC2 [Example 14, 2-(2-oxopyrrolidin-1-yl)-N-(1,2,3,4-tetrahydroacidin-9-yl)acetamide hydrochloride]",19%
5,CCCCC(=O)Nc1c2c(nc3ccccc13)CCCC2 [Example 4],5%
6,O=C1CN(CC(=O)Nc2c3c(nc4ccccc24)CCCC3)C(=O)CN1 [Example 37],9%
7,O=C(CN1CCCC1=O)Nc1c2c(nc3sccc13)CCCC2 [Example 27],19%
8,CC(=O)N(C)CC(=O)Nc1c2c(nc3ccccc13)CCCC2 [Example 42],14%
9,NC(=O)NCC(=O)Nc1c2c(nc3ccccc13)CCCC2 [Example 46],11%

# Same assay, conditions: 10^-8 M; HACU, AF64A-treated rat hippocampus synaptosomal fraction; [3H]choline 1 μM; 37° C.
row,SMILES,Improved ratio (% based on Control)
1,O=C(CN1CCCC1=O)Nc1c2c(nc3ccccc13)C1CCN2CC1 [Example 22],13%
2,"CNCC(=O)Nc1c2c(nc3ccccc13)CCCC2 [Example 39, 9-[(2-methylamino)acetyl-amino]-1,2,3,4-tetrahydroacridine]",5%
3,"CCCC(=O)Nc1c2c(nc3ccccc13)CCCC2 [Example 1, N-(1,2,3,4-tetrahydroacridin-9-yl)butanamide]",20%
4,"O=C(CN1CCCC1=O)Nc1c2c(nc3ccccc13)CCCC2 [Example 14, 2-(2-oxopyrrolidin-1-yl)-N-(1,2,3,4-tetrahydroacidin-9-yl)acetamide hydrochloride]",12%
5,CCCCC(=O)Nc1c2c(nc3ccccc13)CCCC2 [Example 4],4%
6,O=C1CN(CC(=O)Nc2c3c(nc4ccccc24)CCCC3)C(=O)CN1 [Example 37],14%
7,O=C(CN1CCCC1=O)Nc1c2c(nc3sccc13)CCCC2 [Example 27],5%
8,CC(=O)N(C)CC(=O)Nc1c2c(nc3ccccc13)CCCC2 [Example 42],11%
9,NC(=O)NCC(=O)Nc1c2c(nc3ccccc13)CCCC2 [Example 46],-8%

# Test system: not listed separately
# Test: Acute toxicity test, oral, mouse
# Details: in vivo
# Description: The compound of the present invention was orally administered to a mouse and acute toxicity value was measured.
row,SMILES,LD50
1,"CCCC(=O)Nc1c2c(nc3ccccc13)CCCC2 [Example 1, N-(1,2,3,4-tetrahydroacridin-9-yl)butanamide]",1000 mg/kg
2,"O=C(CN1CCCC1=O)Nc1c2c(nc3ccccc13)CCCC2 [Example 14, 2-(2-oxopyrrolidin-1-yl)-N-(1,2,3,4-tetrahydroacidin-9-yl)acetamide hydrochloride]",2300 mg/kg
3,O=C1CN(CC(=O)Nc2c3c(nc4ccccc24)CCCC3)C(=O)CN1 [Example 37],2100 mg/kg
